Reference: the supplement of paper PMC4862054

Columns and labels:
DU-4475 [1] = assay: normalised viability (% of control), CellTiter-Blue; higher = more viable cells (about 100 = DMSO control); conditions: 1000 nM; incubation time: 72 h
Method: (§1)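 DSRT, CellTiter-Blue viability, 72 h incubation. Signal is normalised to DMSO and benzethonium chloride controls. Value is the normalised response at dose 7.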

CAL-51 [2] = assay: as above; conditions: 1000 nM; incubation time: 72 h
Method: as §1

HDQ-P1 [3] = assay: as above; conditions: 1000 nM; incubation time: 72 h
Method: as §1

MDA-MB-453 [4] = assay: as above; conditions: 1000 nM; incubation time: 72 h
Method: as §1

HCC1599 [5] = assay: drug sensitivity score (DSS), CellTox Green (DSS (AUC-based score)); higher = stronger drug effect (viability inhibition or cytotoxicity); extreme values may be limits of the assay; conditions: incubation time: 72 h
How it was run: (§2)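 Breast cancer cells were seeded into 384-well plates containing compound at 5 concentrations in 10-fold steps over a compound-specific 10,000-fold range and incubated 72 h. After CellTox Green and CellTiter-Glo readings, each plate was normalised to 0.1 % DMSO and a positive kill control. The drug sensitivity score rests on the area under the fitted dose-response curve.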

HCC1143 [6] = assay: as above; conditions: incubation time: 72 h
How it was run: as §2

BT-474 [7] = assay: as above; conditions: incubation time: 72 h
How it was run: as §2

BT-549 = assay: drug sensitivity score (DSS), CellTiter-Glo (DSS (AUC-based score)); higher = stronger drug effect (viability inhibition or cytotoxicity); extreme values may be limits of the assay; conditions: incubation time: 72 h
How it was run: as §2

DU-4475 [8] = assay: as above; conditions: incubation time: 72 h
How it was run: as §2

HCC1937 = assay: as above; conditions: incubation time: 72 h
How it was run: as §2

HCC1599 [9] = assay: as above; conditions: incubation time: 72 h
How it was run: as §2

SK-BR-3 = assay: as above; conditions: incubation time: 72 h
How it was run: as §2

MDA-MB-468 = assay: as above; conditions: incubation time: 72 h
How it was run: as §2

CAL-85-1 = assay: as above; conditions: incubation time: 72 h
How it was run: as §2

CAL-51 [10] = assay: as above; conditions: incubation time: 72 h
How it was run: as §2

HCC1143 [11] = assay: as above; conditions: incubation time: 72 h
How it was run: as §2

CAL-120 = assay: as above; conditions: incubation time: 72 h
How it was run: as §2

HDQ-P1 [12] = assay: as above; conditions: incubation time: 72 h
How it was run: as §2

CAL-148 = assay: as above; conditions: incubation time: 72 h
How it was run: as §2

MDA-MB-436 = assay: as above; conditions: incubation time: 72 h
How it was run: as §2

MDA-MB-231 = assay: as above; conditions: incubation time: 72 h
How it was run: as §2

BT-474 [13] = assay: as above; conditions: incubation time: 72 h
How it was run: as §2

MCF-10A = assay: as above; conditions: incubation time: 72 h
How it was run: as §2

Hs578T = assay: as above; conditions: incubation time: 72 h
How it was run: as §2

MFM-223 = assay: as above; conditions: incubation time: 72 h
How it was run: as §2

MDA-MB-453 [14] = assay: as above; conditions: incubation time: 72 h
How it was run: as §2

Structure (SMILES) | normalised viability (DU-4475 [1]) [%] | normalised viability (CAL-51 [2]) [%] | normalised viability (HDQ-P1 [3]) [%] | normalised viability (MDA-MB-453 [4]) [%] | drug sensitivity score (HCC1599 [5]) | drug sensitivity score (HCC1143 [6]) | drug sensitivity score (BT-474 [7]) | drug sensitivity score (BT-549) | drug sensitivity score (DU-4475 [8]) | drug sensitivity score (HCC1937) | drug sensitivity score (HCC1599 [9]) | drug sensitivity score (SK-BR-3) | drug sensitivity score (MDA-MB-468) | drug sensitivity score (CAL-85-1) | drug sensitivity score (CAL-51 [10]) | drug sensitivity score (HCC1143 [11]) | drug sensitivity score (CAL-120) | drug sensitivity score (HDQ-P1 [12]) | drug sensitivity score (CAL-148) | drug sensitivity score (MDA-MB-436) | drug sensitivity score (MDA-MB-231) | drug sensitivity score (BT-474 [13]) | drug sensitivity score (MCF-10A) | drug sensitivity score (Hs578T) | drug sensitivity score (MFM-223) | drug sensitivity score (MDA-MB-453 [14])
COc1cc([C@@H]2c3cc4c(cc3[C@@H](O[C@@H]3O[C@@H]5CO[C@@H](c6cccs6)O[C@H]5[C@H](O)[C@H]3O)[C@H]3COC(=O)[C@H]23)OCO4)cc(OC)c1O [Teniposide] | 5.16 | 24.4 | 82.3 | 73.1 | 3.84 | 0 | 0 | 16.1 | 19.4 | 6.71 | 19 | 20.3 | 13.5 | 10.3 | 12.1 | 12 | 6.56 | 4.15 | 15.7 | 16.8 | 8.09 | 11.7 | 0 | 7.63 | 7.72 | 0
COc1cc2nccc(Oc3ccc(NC(=O)Nc4cc(C)on4)c(Cl)c3)c2cc1OC [Tivozanib] | 124 | 90.3 | 72.5 | 91.7 | 0 | 0 | 0 | 0 | 0 | 1.42 | 0 | 0 | 0 | 0 | 0 | 0 | 0 | 1.67 | 0 | 0 | 2.77 | 0 | 1.39 | 0 | 7.56 | 2.71
CC1=C(/C=C/C(C)=C/C=C/C(C)=C/C(=O)O)C(C)(C)CCC1 [Tretinoin] | 102 | 93.2 | 109 | 117 | 0 | 0 | 0.87 | 0 | 0 | 0 | 0.765 | 7.99 | 2.13 | 0 | 0 | 0 | 0 | 0 | 2.48 | 0 | 1.34 | 0 | 4.05 | 1.26 | 0 | 2.34
Oc1ncc(N(CCCl)CCCl)c(O)n1 [Uracil mustard] | 96.2 | 89.6 | 117 | 101 | 0 | 0 | 0 | 0 | 0 | 0 | 0 | 0 | 0 | 0 | 0 | 0 | 0 | 0 | 0 | 0 | 0 | 0 | 0 | 0 | 0 | 0
CCCCC(=O)OCC(=O)[C@]1(O)Cc2c(O)c3c(c(O)c2[C@@H](O[C@H]2C[C@H](NC(=O)C(F)(F)F)[C@H](O)[C@H](C)O2)C1)C(=O)c1c(OC)cccc1C3=O [Valrubicin] | 2.39 | 23.1 | 58 | 55.7 | 0 | 0 | 0 | 9.05 | 11.5 | 4.28 | 2.29 | 12.4 | 11.1 | 4.91 | 16.8 | 8.06 | 0 | 5.59 | 13.8 | 9.03 | 3.05 | 3.82 | 8.72 | 5.56 | 1.28 | 2.44
CCCS(=O)(=O)Nc1ccc(F)c(C(=O)c2c[nH]c3ncc(-c4ccc(Cl)cc4)cc23)c1F [Vemurafenib] | 25.6 | 93.2 | 90.5 | 87.2 | 0 | 0 | 0 | 0 | 14.1 | 0 | 0 | 0 | 0 | 0.555 | 2.75 | 0 | 0 | 0 | 0 | 0 | 0 | 0.633 | 0 | 0 | 0 | 0
